Experiments:
IgMMAY = test: Quantitative precipitin inhibition, IgMMAY + Klebsiella K21; format: binding, human; conditions: for inhibition of precipitation of IgMMAY by Klebsiella K21: 25 μl 1:5 dilution IgMMAY + 1.6 μg Klebsiella K21, Fig. 3B; for times more active than pyruvate in inhibiting the Klebsiella K21 precipitin reaction: IgMMAY
IgMWEA [1] = test: Quantitative precipitin reaction of purified IgMWEA with polysaccharides; format: binding, human; conditions: ~8 μg N purified IgMWEA, total volume 350 μl, Fig. 1A
IgMWEA [2] = test: Quantitative precipitin inhibition, IgMWEA + Bacto agar 20C extract; format: binding, human; conditions: for times more active than sodium pyruvate on a molar basis: inhibiting precipitation of IgMWEA by agar; for inhibition of precipitation of IgMWEA by agar: even at 100 μmol inhibitor
IgMWEA [3] = test: Precipitin inhibition, IgMWEA-Helix pomatia galactan; format: binding, human; conditions: data not shown
anti-Klebsiella K11 = conditions: cited from earlier work

Row | Molecule | inhibition of precipitation of IgMMAY by Klebsiella K21 (IgMMAY) | precipitin reaction with IgMWEA (IgMWEA [1]) | further results
1 | O=P(O)(O)O[C@H]1O[C@H](CO)[C@@H](O)[C@H](O)[C@H]1O [D-glucose-1-phosphate, D-glucose-l-phosphate] | no inhibition | – | –
2 | heparin | – | failed to precipitate | –
3 | CO[C@H]1O[C@@H]2CO[C@@](C)(C(=O)O)O[C@@H]2[C@H](O)[C@H]1O (single isomer, unassigned) [methyl 4,6pyDGalα R isomer] | – | – | times more active than pyruvate in inhibiting the Klebsiella K21 precipitin reaction (IgMMAY): 150 times; times more active than sodium pyruvate on a molar basis (IgMWEA [2]): > 20 times
4 | CCC(=O)[O-].[Na+] [sodium propionate] | – | – | inhibition of precipitin reaction of IgMWEA-Helix pomatia galactan (IgMWEA [3]): inactive
5 | CO[C@H]1O[C@H](CO)[C@H](O)[C@H](O)[C@H]1O [methyl α-DGal, methyl a-DGal] | no inhibition | – | inhibition of precipitation of IgMWEA by agar (IgMWEA [2]): no inhibition
6 | COC1OC(CO)C(O)C(O)C1O (stereo not drawn) [methyl β-DGal, methyl /~-DGal] | no inhibition | – | inhibition of precipitation of IgMWEA by agar (IgMWEA [2]): no inhibition
7 | CC(=O)C(=O)O [sodium pyruvate, Sodium pyruvate] | better than lactate and propionate | – | inhibition of precipitin reaction of IgMWEA-Helix pomatia galactan (IgMWEA [3]): inhibited
8 | O=P(O)(O)O[C@H]1O[C@H](CO)[C@H](O)[C@H](O)[C@H]1O [D-galactose-1-phosphate] | no inhibition | – | –
9 | agarose | – | inactive | –
10 | keratosulfate | – | failed to precipitate | –
11 | dextran sulfate | – | did react | –
12 | CO[C@H]1O[C@@H]2CO[C@@](C)(C(=O)O)O[C@@H]2[C@H](O)[C@H]1O (single isomer, unassigned) [methyl 4,6pyDGalα S isomer] | inactive | – | inhibition of Klebsiella K11-anti-Klebsiella K11 (anti-Klebsiella K11): does not inhibit
13 | O=C[C@H](O)[C@@H](O)[C@@H](O)[C@H](O)COP(=O)(O)O [D-galactose-6-phosphate] | no inhibition | – | –
14 | CO[C@@H]1O[C@@H]2COC(C)(C(=O)O)O[C@@H]2[C@H](O)[C@H]1O (single isomer, unassigned) [methyl 4,6pyDGalβ R isomer, methyl 4,6-O-(1-carboxyethylidene) ~-o-galactopyranoside] | – | – | times more active than pyruvate in inhibiting the Klebsiella K21 precipitin reaction (IgMMAY): 150 times; times more active than sodium pyruvate on a molar basis (IgMWEA [2]): > 20 times
15 | CC(O)C(=O)[O-].[Na+] (stereo not shown) [sodium lactate] | – | – | inhibition of precipitin reaction of IgMWEA-Helix pomatia galactan (IgMWEA [3]): inactive
16 | xanthan gum | – | failed to precipitate | –
17 | O=C[C@H](O)[C@@H](O)[C@@H](O)[C@H](O)CO [DGal, D-galactose] | Neither DGal, its methyl a- and/~-glycosides, nor any of the other neutral sugars tested gave any inhibition | – | inhibition of precipitation of IgMWEA by agar (IgMWEA [2]): no inhibition
18 | Larch arabinogalactan | – | inactive | –

— PMC2185977 (The Journal of Experimental Medicine, 1980)
